Article PMC6562610, “Inhibition of Hedgehog Signaling in Fibroblasts, Pancreatic, and Lung Tumor Cells by Oxy186, an Oxysterol Analogue with Drug-Like Properties” (Cells, 2019)
Entries after “also recorded” stand apart in the source; their conditions may differ. One block for each compound: values may come before it.

Key:
[1] = test system: Gli1 expression in A549 cells; assay: Inhibition of Gli1 expression in A549 cells, Q-RT-PCR; assay type: cell-based, human; conditions: 72 h
From the text: (§1) NIH3T3-E1 fibroblasts were obtained from ATCC (Manassas, VA) and cultured, as previously described. CAPAN-1 and PANC-1 human pancreatic cancer cells were obtained from ATCC and cultured in Dulbecco’s Modified Eagle Medium (DMEM) containing 10% heat-inactivated fetal bovine serum (FBS) (Hyclone Laboratories, Logan, UT, USA) and antibiotics, as previously described. The human lung cancer cell lines A549 and H2030 were obtained from ATCC and cultured in RPMI-1640 containing 10% FBS. The human hepatoma cell line HepG2 was obtained from ATCC and cultured in DMEM containing 10% FBS. Mouse embryonic fibroblasts (MEFs) from suppressor of fused (Sufu) null mice (Sufu^−/−) were provided by Dr. Philip Beachy of Stanford University and cultured in DMEM containing 10% FBS. Gant61, SB431542 and vismodegib (GDC0449) were obtained from Cayman Chemical, HPI-1 was obtained from Abcam. For experiments, cells were treated in a medium containing 5% FBS.
(§2) Total RNA was extracted with the RNeasy Plus Mini Kit from Qiagen, according to the manufacturer’s instructions. One microgram of RNA was reverse-transcribed using an iScript Reverse Transcription Supermix from Bio-Rad, to make single-stranded cDNA. The cDNAs were then mixed with Qi SYBR Green Supermix (Bio-Rad, Hercules, CA, USA) for quantitative RT-PCR assay using a Bio-Rad I-cycler IQ quantitative thermocycler. All PCR samples were prepared in triplicate wells in a 96-well plate. […] Fold changes in gene expression were calculated using the ΔΔCt method. […]
(§3) Figure 4 Inhibition of Gli and Shh expression in (a) PDAC (PANC-1) and (b,c) human lung cancer cells (A549 and H2030, respectively) by Oxy186. Cells were treated with the compounds as indicated in DMEM or RPMI 1640 containing 5% FBS for (a) 48 or (b,c) 72 hours, then RNA was extracted and analyzed by Q-RT-PCR for the expression of Gli1 and normalized to GAPDH expression. (d) CAPAN-1 cells were treated with the compounds, as indicated, in DMEM containing 5% FBS for 72 h, then RNA was extracted and analyzed by Q-RT-PCR for the expression of Shh and normalized to GAPDH expression. […]

[2] = test system: Gli1 expression in PANC-1 cells; assay: Inhibition of baseline Gli1 expression in PANC-1 cells, Q-RT-PCR; assay type: cell-based, human; conditions: 48 h
From the text: as §1, §2, §3

A549 cells = assay: Cell counting assay, A549; assay type: cell-based, human; conditions: 96 h
Protocol: (§4) A549 and H2030 cells cultured in 12-well plates at 20% confluence were treated with Oxy186, HPI-1, Gant61, or GDC0449 for 96 hours and then trypsinized and suspended in fresh medium. An aliquot of cell suspension was applied to a hemocytometer and counted under a microscope.
(§5) Figure 6 Inhibition of human pancreatic and lung cancer cell proliferation by Oxy186. (a,c) A549, (b) and (d) H2030, (e) PANC-1, and (f) CAPAN-1 cells were treated with the compounds as indicated in RPMI 1640 (a–d) or DMEM (e,f) containing 5% FBS for 96 h and then were trypsinized and counted. Data from a representative experiment are reported as the mean of triplicate determinations ± SD (* p < 0.05 vs. Control; ** p < 0.01 vs. control).

[3] = test system: Gli1 expression in H2030 cells; assay: Inhibition of Gli1 expression in H2030 cells, Q-RT-PCR; assay type: cell-based, human; conditions: 72 h
From the text: as §1, §2, §3

CAPAN-1 cells = assay: Cell counting assay, CAPAN-1; assay type: cell-based, human; conditions: 96 h
Protocol: as §4, §5

[4] = test system: Shh expression in CAPAN-1 cells; assay: Inhibition of Shh expression in CAPAN-1 cells, Q-RT-PCR; assay type: cell-based, human; conditions: 72 h
From the text: as §1, §2, §3

PANC-1 cells = assay: Cell counting assay, PANC-1; assay type: cell-based, human; conditions: 96 h
Protocol: as §4, §5

H2030 cells = assay: Cell counting assay, H2030; assay type: cell-based, human; conditions: 96 h
Protocol: as §4, §5

[5] = Metabolic stability in human liver microsomes; assay type: in vitro ADME
[6] = test system: Hh target gene Gli1 expression in NIH3T3-E1 cells; assay: Inhibition of CAPAN-1 conditioned medium (ligand)-induced Gli1 mRNA expression, Q-RT-PCR; assay type: cell-based; conditions: NIH3T3 cells activated by CAPAN-1 CM Hh ligands, 72 h
From the text: as §1
Growth medium in confluent […] tissue culture plates of CAPAN-1 cells were replaced with 10 ml of fresh growth medium and cells were incubated for a total of 7 days. Conditioned medium (CM), containing Shh and Ihh, was collected and spun down to remove any detached cells and debris, aliquoted, and stored frozen at −80 °C [37].
as §2, with “thermocycler.” for “thermocycler. All PCR samples were prepared in triplicate wells in a 96-well plate.”
Figure 3 Inhibition of ligand-induced Hedgehog signaling. […] After 72 h, RNA was extracted and analyzed by Q-RT-PCR for the expression of Hh target genes Gli1 (a,b,d) and Ptch1 (c), and normalized to Oaz1 expression. […] Luciferase activity was measured and normalized to the Renilla luciferase activity. […]

[7] = Pharmacokinetic study in mice, single oral dose; assay type: in vivo, balb/c mice; conditions: Figure 8b drug-like properties summary
Protocol: In an initial assessment of the drug-like properties of Oxy186, we performed a pharmacokinetic (PK) study in mice. Oxy186, formulated in 4% ethanol, 15% DMSO, and 81% corn oil, was administered to balb/c mice by oral gavage as a single dose of 50 mg/kg.
Figure 8 Drug-like properties of Oxy186. (a) A single dose of Oxy186 at 50 mg/kg, formulated in 4% ethanol/ 15% DMSO/ 81% corn oil, was administered to balb/c mice by oral gavage. Plasma samples were taken at 10 min, 30 min, 1, 2, 4, 6, 8, and 24 h, followed by LC/MS analysis of the plasma. (b) Evolution of Oxy186 from parent compound Oxy16 and their drug-like properties.

[8] = Metabolic stability in mouse liver microsomes; assay type: in vitro ADME
LXR target gene Abca1 = assay: Induction of LXR target gene Abca1 in NIH3T3 cells, Q-RT-PCR; assay type: cell-based, mouse
Protocol: (§6) Total RNA was extracted with the RNeasy Plus Mini Kit from Qiagen, according to the manufacturer’s instructions. One microgram of RNA was reverse-transcribed using an iScript Reverse Transcription Supermix from Bio-Rad, to make single-stranded cDNA. The cDNAs were then mixed with Qi SYBR Green Supermix (Bio-Rad, Hercules, CA, USA) for quantitative RT-PCR assay using a Bio-Rad I-cycler IQ quantitative thermocycler. All PCR samples were prepared in triplicate wells in a 96-well plate. After 40 cycles of PCR, melt curves were examined in order to ensure primer specificity. Fold changes in gene expression were calculated using the ΔΔCt method. Primers used for mouse were as follows: Oaz1 (5’-CCACTGCTTCGCCAGAGAG-3’) and (5’-CCCGGACCCAGGTTACTA-3’), Gli1 (5’-[…]-3’ and 5’-[…]-3’), Ptch1 (5’-CCATCGGCGACAAGAACC-3’ and 5’-[…]-3’), Hip (5’-[…]-3’ and 5’-[…]-3’), and Abca1 (5’-[…]-3’ and 5’-[…]-3’). Primers used for human were as follows: SREBP1c (5’-CGCTCCTCCATCAATGACA-3’ and 5’-[…]-3’), GAPDH (5’-[…]-3’ and 5’-[…]-3’), SHH (5’-CGGAGCGAGGAAGGGAAAG-3’) and (5’-[…]-3’), and GLI1 (5’-GAAGCCGAGCCGAGTATC-3’ and 5’-[…]-3’).
Figure 7 Induction of LXR target gene expression by Oxy186 and LXR agonist TO901317 (TO). (a) NIH3T3 cells and (b) HepG2 cells were treated with DMEM containing 5% FBS in the presence or absence of TO (2 µM) or Oxy186 (10 µM). […] Data from a representative experiment are reported as the mean of triplicate determinations ± SD (** p < 0.01 vs. control).

LXR target gene SREBP1c = assay: Induction of LXR target gene SREBP1c in HepG2 cells, Q-RT-PCR; assay type: cell-based, human; conditions: 2 µM, 72 h
Protocol: as §6
Figure 7 Induction of LXR target gene expression by Oxy186 and LXR agonist TO901317 (TO). (a) NIH3T3 cells and (b) HepG2 cells were treated with DMEM containing 5% FBS in the presence or absence of TO (2 µM) or Oxy186 (10 µM). […]

SMILES: CS(=O)(=O)c1ccc(C(=O)Nc2ccc(Cl)c(-c3ccccn3)c2)c(Cl)c1 [GDC0449, vismodegib]
Inhibition of expression of Gli1 ([1]; 10 µM): significantly inhibited
Inhibition of high baseline expression of Gli1 ([2]; 10 µM): did not have a similar effect
Inhibition of cell proliferation (A549 cells; 10 µM): not
Inhibition of expression of Gli1 ([3]; 10 µM): significantly inhibited
Anti-proliferation effect (CAPAN-1 cells): marginally effective
Inhibition of Shh expression [4]: inhibitory effects on Shh expression in CAPAN-1 cells, but to a lesser extent

SMILES: CN(C)c1ccccc1CN1CCCN(Cc2ccccc2N(C)C)C1c1ccncc1 [Gant61]
Anti-proliferation effect (PANC-1 cells): significant anti-proliferation effects
Inhibition of expression of Gli1 ([1]; 20 µM): significantly inhibited
Inhibition of high baseline expression of Gli1 ([2]; 20 µM): significantly inhibited
Inhibition of cell proliferation (A549 cells; 20 µM): significantly inhibited
Inhibition of expression of Gli1 ([3]; 20 µM): significantly inhibited
Anti-proliferative effect (H2030 cells): significant anti-proliferative effect
Anti-proliferation effect (CAPAN-1 cells): significant anti-proliferation effects
Inhibition of Shh expression [4]: inhibitory effects on Shh expression in CAPAN-1 cells, but to a lesser extent; also recorded: significant inhibition

SMILES: CC(C)CCC(O)C(C)(O)C1CCC2C3CC=C4CC(O)CCC4(C)C3CCC21C [Oxy16, 20-α, 22(R)-dihydroxycholesterol, reference compound]
HLM, Half-Life [5]: 15 min
remaining at 1 h ([5]; 60 min, read-out: HLM, % Remaining after 60 min): 6%
half-life ([5]; human, liver microsomes, read-out: HLM, Half-Life): < 15 min
IC50 [6]: > 5 µM
In vivo availability / stability (Figure 8b summary) [7]: Unstable in vivo
remaining at 1 h ([8]; 60 min, read-out: MLM, % Remaining after 60 min): 5%
half-life ([8]; read-out: MLM, Half-Life): 14 min
LXR agonism (Figure 8b summary) (LXR target gene Abca1; Figure 8b drug-like properties summary): Stronger LXR agonist

Induction of expression of SREBP1c (LXR target gene SREBP1c): significantly induced
SMILES: O=S(=O)(c1ccccc1)N(CC(F)(F)F)c1ccc(C(O)(C(F)(F)F)C(F)(F)F)cc1 [TO901317, reference compound]
Induction of expression of LXR target gene Abca1 (LXR target gene Abca1; NIH3T3-E1 cells, 2 µM, 72 h): significantly induced
